{
  "source": "patent US20080262228A1",
  "about": "“Metabolites of 5-fluoro-8- quinoline and methods of preparation and uses thereof” (Wyeth, priority 2006, published 2008)",
  "key": {"[1]": {"assay": "In vivo metabolism of [14C]COMPOUND I in Sprague-Dawley rats, single oral 5 mg/kg dose", "set-up": "species or system rat", "settings": "5 mg/kg oral"}, "[2]": {"assay": "Metabolite characterization in cryopreserved hepatocytes", "settings": "hepatocyte incubations, 20 μM; R, rat; D, dog; H, human; Media = decomposition product observed in media control", "protocol": "Pooled male rat, dog, and mixed male and female human cryopreserved hepatocytes were used in this study. The cryopreserved hepatocytes (two vials from each species; three to five million viable cells per vial) were thawed in a 37° C. water bath with gentle shaking until the ice was almost melted. The suspensions from the two individual vials of the same species were immediately transferred to a 50 mL centrifuge tube containing pre-warmed thawing media at 37° C. with gentle handshaking to prevent the cells from settling. The cell suspension was centrifuged at 50 g for 5 min at 4° C. Supernatants were discarded and the pellets were resuspended in pre-warmed incubation media (8 mL) at 37° C. […] [^14C]COMPOUND I (20 μM) was incubated in a 12-well plate containing hepatocyte suspensions at 1.0 mL per well in duplicate (≧1 million viable cells/well) at 37° C. for 1 or 4 hr in the presence of 5% CO2:95% O2. Control incubations without hepatocytes were also run under the same conditions. Positive controls containing [^14C]7-ethoxycoumarin (100 μM) were also incubated under the same conditions, but only for 1 hr. At the end of the incubations, reactions were stopped by adding acetonitrile with 2% acetic acid (1 mL), mixed for 10 min, followed by centrifugation at 4000 rpm for 10 min at 4° C. Aliquots (50 μL) of supernatants were analyzed by HPLC with UV and radioactivity flow detection for metabolite profiling, and by LC/MS for metabolite identification as described in below. To determine extraction recovery, aliquots (20 μL) of supernatants were analyzed for radioactivity content utilizing a Packard Tri-Carb Model 3100 TR liquid scintillation counter and 5 mL of Ultima Gold.\nThe HPLC system used for mass spectrometric analysis was a Waters Alliance model 2695 HPLC system (Waters Corp). It was equipped with a built-in autosampler and a model 996 diode array UV detector. The UV detector was set to monitor 210-400 nm. The HPLC conditions were the same as those described hereinabove with the following exceptions. […]"}},
  "note": "Where a name gives a salt, the structure may show the parent alone.",
  "data": [
    {"smiles": "Oc1cc(N2CCN(C3CCN(c4ccc(F)c5cccnc45)CC3)CC2)c2ncccc2c1", "note": "[Metabolite M21, 8-{4-[1-(5-fluoroquinolin-8-yl)piperidin-4-yl]piperazin-1-yl}quinolin-6-ol trihydrochloride]", "values": [
      {"measurement": "percent of total brain radioactivity", "setting": "[1]; female rats, between 1 and 3 hr post-dose", "value": "11.3-13.6%"},
      {"measurement": "percent of total brain radioactivity", "setting": "[1]; male rats, between 1 and 6 hr post-dose", "value": "9.0-9.4%"},
      {"measurement": "percent of total radioactivity in the fecal extract", "setting": "[1]; male rats, pooled 0-24 hr feces", "value": 15.1, "unit": "%"},
      {"measurement": "Source", "setting": "[1]; rats, P, plasma, F, feces, B, brain", "value": "B, F"},
      {"measurement": "Source", "setting": "[2]", "value": "R (trace), D, H"}
    ]}
  ]
}
